Experimental findings from PubChem BioAssay AID1259407 (Chemical Carcinogenesis Research Information System (CCRIS), 2018) are described below.

Active and inactive are the calls of the source. The rule behind the calls is not given here.

The data set relates to CCRIS mutagenicity, Ames/micronucleus/aberration tests. In words: CCRIS mutagenicity studies.
[1] abbreviates: Test System: AMES SALMONELLA TYPHIMURIUM, Strain/Indicator: TA98, Metabolic Activation: NONE, Method: PREINCUBATION
Setting [2] is: Test System: AMES SALMONELLA TYPHIMURIUM, Strain/Indicator: TA100, Metabolic Activation: NONE, Method: PREINCUBATION
Setting [3] is: Test System: AMES SALMONELLA TYPHIMURIUM, Strain/Indicator: TA1535, Metabolic Activation: NONE, Method: PREINCUBATION
Where [4] appears, read: Test System: E. COLI, Strain/Indicator: WP2 UVRA, Metabolic Activation: NONE, Method: STANDARD PLATE.
Setting [5] is: Test System: E. COLI, Strain/Indicator: WP2 UVRA, Metabolic Activation: RAT, LIVER, S-9, AROCLOR 1254, Method: STANDARD PLATE.

For `O.O.O.O.O.O.[Cl-].[Cl-].[Ni+2]`, the mutagenic call is “inactive; negative” (End Point: In vitro chromosomal aberrations, Test System: Chinese hamster V79 lung cells, Metabolic Activation: None); “inactive; negative” under setting [1]; “inactive; negative” (Test System: AMES SALMONELLA TYPHIMURIUM, Strain/Indicator: TA98, Metabolic Activation: RAT LIVER S-9, PHENOBARBITAL AND BETA-NAPHTHOFLAVONE, Method: PREINCUBATION); “inactive; negative” under setting [2]; “inactive; negative” (Test System: AMES SALMONELLA TYPHIMURIUM, Strain/Indicator: TA100, Metabolic Activation: RAT LIVER S-9, PHENOBARBITAL AND BETA-NAPHTHOFLAVONE, Method: PREINCUBATION); “inactive; negative” under setting [3]. Moreover, the mutagenic call by setting is: (Test System: AMES SALMONELLA TYPHIMURIUM, Strain/Indicator: TA1535, Metabolic Activation: RAT LIVER S-9, PHENOBARBITAL AND BETA-NAPHTHOFLAVONE, Method: PREINCUBATION) “inactive; negative”; (Test System: AMES SALMONELLA TYPHIMURIUM, Strain/Indicator: TA1537, Metabolic Activation: NONE, Method: PREINCUBATION) “inactive; negative”; (Test System: AMES SALMONELLA TYPHIMURIUM, Strain/Indicator: TA1537, Metabolic Activation: RAT LIVER S-9, PHENOBARBITAL AND BETA-NAPHTHOFLAVONE, Method: PREINCUBATION) “inactive; negative”; (Test System: AMES SALMONELLA TYPHIMURIUM, Strain/Indicator: TA1538, Metabolic Activation: NONE, Method: PREINCUBATION) “inactive; negative”; (Test System: AMES SALMONELLA TYPHIMURIUM, Strain/Indicator: TA1538, Metabolic Activation: RAT LIVER S-9, PHENOBARBITAL AND BETA-NAPHTHOFLAVONE, Method: PREINCUBATION) “inactive; negative”; (Test System: CHINESE HAMSTER V-79, Strain/Indicator: V-79/(HGPRT), Metabolic Activation: NONE) “active; positive”. In addition, the mutagenic call reads like this: (Test System: E.COLI, Strain/Indicator: WP2UVRA, Metabolic Activation: NONE, Method: PREINCUBATION) “inactive; negative”; (Test System: E.COLI, Strain/Indicator: WP2UVRA, Metabolic Activation: RAT LIVER S-9, PHENOBARBITAL AND BETA-NAPHTHOFLAVONE, Method: PREINCUBATION) “inactive; negative”.
For `CN(C)C(=O)Nc1cccc(C(F)(F)F)c1`, the mutagenic call was “inactive; negative” (End Point: IN VITRO CHROMOSOMAL ABERRATIONS, Test System: CHO-LB CELLS, Metabolic Activation: NONE); “inactive; negative” (End Point: IN VITRO CHROMOSOMAL ABERRATIONS, Test System: CHO-LB CELLS, Metabolic Activation: RAT, LIVER, S-9, AROCLOR 1254); “inactive; negative” (Test System: AMES SALMONELLA TYPHIMURIUM, Strain/Indicator: TA97, Metabolic Activation: HAMSTER, LIVER, S-9, AROCLOR 1254 (10 OR 30%), Method: PREINCUBATION); “inactive; negative” (Test System: AMES SALMONELLA TYPHIMURIUM, Strain/Indicator: TA97, Metabolic Activation: NONE, Method: PREINCUBATION); “inactive; negative” (Test System: AMES SALMONELLA TYPHIMURIUM, Strain/Indicator: TA97, Metabolic Activation: RAT, LIVER, S-9, AROCLOR 1254 (10 OR 30%), Method: PREINCUBATION); “inactive; negative” (Test System: AMES SALMONELLA TYPHIMURIUM, Strain/Indicator: TA98, Metabolic Activation: HAMSTER, LIVER, S-9, AROCLOR 1254 (10 OR 30%), Method: PREINCUBATION). For the same compound, the mutagenic call is, setting by setting: under setting [1], “inactive; negative”; (Test System: AMES SALMONELLA TYPHIMURIUM, Strain/Indicator: TA98, Metabolic Activation: RAT, LIVER, S-9, AROCLOR 1254 (10 OR 30%), Method: PREINCUBATION) “inactive; negative”; (Test System: AMES SALMONELLA TYPHIMURIUM, Strain/Indicator: TA100, Metabolic Activation: HAMSTER, LIVER, S-9, AROCLOR 1254 (10 OR 30%), Method: PREINCUBATION) “inactive; negative”; under setting [2], “inactive; negative”; (Test System: AMES SALMONELLA TYPHIMURIUM, Strain/Indicator: TA100, Metabolic Activation: RAT, LIVER, S-9, AROCLOR 1254 (10 OR 30%), Method: PREINCUBATION) “inactive; negative”; (Test System: AMES SALMONELLA TYPHIMURIUM, Strain/Indicator: TA1535, Metabolic Activation: HAMSTER, LIVER, S-9, AROCLOR 1254 (10 OR 30%), Method: PREINCUBATION) “inactive; negative”. The mutagenic call under setting [3] is “inactive; negative”; the mutagenic call (Test System: AMES SALMONELLA TYPHIMURIUM, Strain/Indicator: TA1535, Metabolic Activation: RAT, LIVER, S-9, AROCLOR 1254 (10 OR 30%), Method: PREINCUBATION) is “inactive; negative”; the mutagenic call (Test System: AMES SALMONELLA TYPHIMURIUM, Strain/Indicator: TA1535, Metabolic Activation: RAT, LIVER, S-9, Method: STANDARD PLATE) was “active; positive”; the mutagenic call (Test System: E. COLI, Strain/Indicator: WP2 UVRA, Metabolic Activation: HAMSTER, LIVER, S-9, AROCLOR 1254, Method: STANDARD PLATE) is “inactive; negative”; the mutagenic call (Test System: E. COLI, Strain/Indicator: WP2 UVRA, Metabolic Activation: HAMSTER, LIVER, S-9, Method: STANDARD PLATE) is “inactive; negative”; the mutagenic call (Test System: E. COLI, Strain/Indicator: WP2 UVRA, Metabolic Activation: MOUSE, LIVER, S-9, AROCLOR 1254, Method: STANDARD PLATE) is “inactive; negative”. Also, the mutagenic call runs as follows: (Test System: E. COLI, Strain/Indicator: WP2 UVRA, Metabolic Activation: MOUSE, LIVER, S-9, Method: STANDARD PLATE) “inactive; negative”; under setting [4], “inactive; negative”; under setting [5], “inactive; negative”; (Test System: E. COLI, Strain/Indicator: WP2 UVRA, Metabolic Activation: RAT, LIVER, S-9, Method: STANDARD PLATE) “inactive; negative”.
For `Oc1cccc2c1ccc1c3c4c(cccc4cc12)C=C3`, the mutagenic call (Test System: AMES SALMONELLA TYPHIMURIUM, Strain/Indicator: TA98, Metabolic Activation: NONE, Method: STANDARD PLATE) is “inactive; negative” and the mutagenic call (Test System: AMES SALMONELLA TYPHIMURIUM, Strain/Indicator: TA98, Metabolic Activation: RAT, LIVER, S-9, AROCLOR 1254 (0, 0.4, 0.8, 1.15 OR 1.5 MG/PLATE), Method: STANDARD PLATE) is “active; positive”.
For `CNc1ccc(O)c2c1C(=O)c1c(O)ccc(NC)c1C2=O`, the mutagenic call is “active; positive” (Test System: Ames Salmonella typhimurium, Strain/Indicator: TA98, Metabolic Activation: None, Method: Preincubation); “active; positive” (Test System: Ames Salmonella typhimurium, Strain/Indicator: TA100, Metabolic Activation: None, Method: Preincubation); “inactive; negative” (Test System: Ames Salmonella typhimurium, Strain/Indicator: TA102, Metabolic Activation: None, Method: Preincubation); “active; positive” (Test System: Ames Salmonella typhimurium, Strain/Indicator: TA1535, Metabolic Activation: None, Method: Preincubation).
Turning to `CCC(=O)C1c2cccc(O)c2C(=O)c2c(O)cccc21`, the mutagenic call is, setting by setting: (Test System: AMES SALMONELLA TYPHIMURIUM, Strain/Indicator: TA1537, Metabolic Activation: NONE, Method: STANDARD PLATE) “active; positive”; (Test System: AMES SALMONELLA TYPHIMURIUM, Strain/Indicator: TA1537, Metabolic Activation: RAT, LIVER, S-9, PHENOBARBITAL AND BETA-NAPHTHOFLAVONE, Method: STANDARD PLATE) “active; positive”; (Test System: E. COLI, Strain/Indicator: WP2, Metabolic Activation: NONE, Method: STANDARD PLATE) “inactive; negative”; (Test System: E. COLI, Strain/Indicator: WP2, Metabolic Activation: RAT, LIVER, S-9, AROCLOR 1254, Method: STANDARD PLATE) “inactive; negative”; under setting [4], “inactive; negative”; under setting [5], “inactive; negative”.
For `O=C(ON(OCc1ccccc1)C(=O)c1ccccc1)c1cccc([N+](=O)[O-])c1`, the mutagenic call reads like this: (Test System: AMES SALMONELLA TYPHIMURIUM, Strain/Indicator: TA100, Metabolic Activation: NONE, Method: STANDARD PLATE) “active; positive”; (Test System: AMES SALMONELLA TYPHIMURIUM, Strain/Indicator: TA100, Metabolic Activation: RAT, S-9, AROCLOR, Method: STANDARD PLATE) “active; positive”.
`COc1cc2nc3occc3c(OC)c2cc1OC`: the mutagenic call by setting is: (Test System: AMES SALMONELLA TYPHIMURIUM, Strain/Indicator: TA98, Metabolic Activation: RAT, LIVER, S-9, PHENOBARBITAL, Method: STANDARD PLATE) “active; positive”; (Test System: AMES SALMONELLA TYPHIMURIUM, Strain/Indicator: TA100, Metabolic Activation: RAT, LIVER, S-9, PHENOBARBITAL, Method: STANDARD PLATE) “active; positive”.
For the compound `O=[N+]([O-])c1ccc(-c2csc(Nc3ccccc3)n2)o1`, the mutagenic call (Test System: E. COLI WP2, Strain/Indicator: WP2, Metabolic Activation: NONE, Method: SPOT) is “active; positive”.
